Measurements: PMC6980506, “Comparative pharmacokinetics and pharmacodynamics of the advanced Retinol-Binding Protein 4 antagonist in dog and cynomolgus monkey” (PLoS ONE, 2020)
Where “and” joins values, the source holds several entries; their conditions need not be identical. Identical values can stand only once. Like-named read-outs stand apart in the source and are kept apart here.

Test: Single dose pharmacokinetic study in beagle dog
Type: in vivo
Description: Pharmacokinetic studies were conducted in male beagle dogs and male cynomolgus monkeys at SRI International, Menlo Park, CA. General procedures for animal care and housing were in accordance with the National Research Council (NRC) Guide for the Care and Use of Laboratory Animals (1996) and the Animal Welfare Standards incorporated in 9 CFR Part 3, 1991 and complied with guidelines set forth by the ARVO Animal Statement for the Use of Animals in Ophthalmic and Vision Research. During the course of the PK experiments, cynomolgus monkeys were individually housed in stainless steel primary enclosures in an AAALAC-accredited facility. Animals were fed a commercial monkey chow, and supplemental food was provided (fresh fruits, vegetables, seeds, and nuts). Reverse osmosis-purified drinking water was available at all times. Cynomolgus monkeys were maintained on a 12:12 hour light:dark cycle at the 64–84°F temperature and 30–70% humidity. Monkeys had access to enrichment opportunities (grooming devices, foraging devices, activity panels and mirrors) and were provided auditory stimuli and human interaction enrichment throughout the study. Blood samples were collected by venipuncture of a peripheral vein. Animals were acclimated to the squeeze back mechanism in their home cage by repeated, short periods of restraint during general husbandry procedures for at least 2 weeks prior to dosing. Animal were not removed from their cages for collection, and no anesthesia/analgesic agents were used for blood collection. […] For PK experiments, beagle dogs were individually housed in enclosed run (≥ 4 ft x 6 ft). Dogs were exposed to their daily ration of food, Harlan Teklad 2025C Certified Global 25% Protein Dog Diet. Water was provided from the public water supply (municipal tap water) ad libitum. Dogs were maintained on a 12:12 hour light:dark cycle at the 72–73°F temperature and 40–71% humidity. Every effort was made to minimize, if not eliminate, pain and suffering in all animals in this study. No restraining devices were used in blood collecting procedures. Dogs were gentle hand-held to restrain by trained technicians with the dogs foreleg extended for sample collection of blood from cephalic vein. Animals were awake during blood sample collection with no anesthesia/analgesic agents used, and positive reinforcement by the technician was provided following collection. […] All dogs were released back to the colony after the study was completed. Male beagle dogs and male cynomolgus monkey received a single i.v. dose of a test compound at 0.5 mg kg^−1 (dog) and 1 mg kg^−1 (monkey) or a single p.o. dose of a test compound of at 2 mg kg^−1 (dog) and 5 mg kg^−1 (monkey). The number of animals that was used in PK experiments is 3 per study group. Intravenous administration vehicle was 3% DMA/45% PEG300/12% ethanol/40% sterile water; p.o. vehicle was 2% Tween 80 in 0.9% saline. […] Blood samples were processed to plasma. Following protein extraction with acetonitrile, compound concentrations in plasma were measured by LC-MS/MS. The plasma drug level data were analyzed using WinNonlin software package; Model 201 (for i.v. bolus administration);was used for the analysis of i.v. data, and Model 200 (for extravascular administration) was used for the analysis of the p.o. data. Aliquots of pre-dose plasma samples, as well as aliquots of plasma PK samples, were used for the analysis of the plasmabiomarker, RBP4.

Cc1cc(C(=O)O)nc(N2C[C@H]3C[C@@H](c4ccccc4C(F)(F)F)C[C@H]3C2)n1 [BPN-14136]
%F, bioavailability (Dog, 2.0 mg kg^−1 p.o. vs 0.5 mg kg^−1 i.v.): 84.2 ± 10.4%
plasma concentrations of compound (dog plasma at 24, 36, and 48 hours after 2 mg kg^−1 oral dosing): 70 to 500 ng/mL
Plasma level, Individual animals (male beagle dog, iv 0.5 mg/kg, 0.083 hr, 0.5 mg/kg): 2750 ng/mL and 2650 ng/mL
Plasma level, Individual animals (male beagle dog, iv 0.5 mg/kg, 0.25 hr, 0.5 mg/kg): 2090 ng/mL and 2140 ng/mL
Plasma level, Individual animals (male beagle dog, iv 0.5 mg/kg, 0.5 hr, 0.5 mg/kg): 1820 ng/mL and 1800 ng/mL
Plasma level, Individual animals (male beagle dog, iv 0.5 mg/kg, 1 hr, 0.5 mg/kg): 1270 ng/mL and 1380 ng/mL
Plasma level, Individual animals (male beagle dog, iv 0.5 mg/kg, 2 hr, 0.5 mg/kg): 1060 ng/mL and 1000 ng/mL
Plasma level, Individual animals (male beagle dog, iv 0.5 mg/kg, 4 hr, 0.5 mg/kg): 492 ng/mL and 458 ng/mL
Plasma level, Individual animals (male beagle dog, iv 0.5 mg/kg, 6 hr, 0.5 mg/kg): 284 ng/mL and 281 ng/mL
Plasma level, Individual animals (male beagle dog, iv 0.5 mg/kg, 8 hr, 0.5 mg/kg): 203 ng/mL and 207 ng/mL
Plasma level, Individual animals (male beagle dog, iv 0.5 mg/kg, 12 hr, 0.5 mg/kg): 69.2 ng/mL and 141 ng/mL and 111 ng/mL
Plasma level, Individual animals (male beagle dog, iv 0.5 mg/kg, 24 hr, 0.5 mg/kg): 186 ng/mL and 171 ng/mL
Plasma level, Individual animals (male beagle dog, iv 0.5 mg/kg, 36 hr, 0.5 mg/kg): 47.1 ng/mL and 42.5 ng/mL
Plasma level, Individual animals (male beagle dog, iv 0.5 mg/kg, 48 hr, 0.5 mg/kg): 102 ng/mL and 93.0 ng/mL
Plasma level, Individual animals (male beagle dog, po 2 mg/kg, 0.25 hr, 2 mg/kg): 9280 ng/mL and 4890 ng/mL
Plasma level, Individual animals (male beagle dog, po 2 mg/kg, 0.5 hr, 2 mg/kg): 7730 ng/mL and 6080 ng/mL
Plasma level, Individual animals (male beagle dog, po 2 mg/kg, 1 hr, 2 mg/kg): 6080 ng/mL and 5100 ng/mL
Plasma level, Individual animals (male beagle dog, po 2 mg/kg, 2 hr, 2 mg/kg): 4460 ng/mL and 4300 ng/mL
Plasma level, Individual animals (male beagle dog, po 2 mg/kg, 4 hr, 2 mg/kg): 2560 ng/mL and 2080 ng/mL
Plasma level, Individual animals (male beagle dog, po 2 mg/kg, 8 hr, 2 mg/kg): 971 ng/mL and 885 ng/mL
Plasma level, Individual animals (male beagle dog, po 2 mg/kg, 10 hr, 2 mg/kg): 581 ng/mL and 690 ng/mL
Plasma level, Individual animals (male beagle dog, po 2 mg/kg, 12 hr, 2 mg/kg): 391 ng/mL and 753 ng/mL
Plasma level, Individual animals (male beagle dog, po 2 mg/kg, 24 hr, 2 mg/kg): 542 ng/mL and 277 ng/mL
Plasma level, Individual animals (male beagle dog, po 2 mg/kg, 36 hr, 2 mg/kg): 95.3 ng/mL and 105 ng/mL
Plasma level, Individual animals (male beagle dog, po 2 mg/kg, 48 hr, 2 mg/kg): 152 ng/mL and 160 ng/mL and 67.0 ng/mL
concentration at 0.083 h (male, beagle, dog, plasma, iv, 0.5 mg/kg, male beagle dog, iv 0.5 mg/kg, 0.083 hr, read-out: Plasma level, Individual animals): 2660 ng/mL
concentration at 0.083 h (male, beagle, dog, plasma, iv, 0.5 mg/kg, male beagle dog, iv 0.5 mg/kg, 0.083 hr, read-out: Plasma level, Mean): 2690 ng/mL
concentration at 0.25 h (male, beagle, dog, plasma, iv, 0.5 mg/kg, male beagle dog, iv 0.5 mg/kg, 0.25 hr, read-out: Plasma level, Individual animals): 2000 ng/mL
concentration at 0.25 h (male, beagle, dog, plasma, iv, 0.5 mg/kg, male beagle dog, iv 0.5 mg/kg, 0.25 hr, read-out: Plasma level, Mean): 2080 ng/mL
concentration at 0.5 h (male, beagle, dog, plasma, iv, 0.5 mg/kg, male beagle dog, iv 0.5 mg/kg, 0.5 hr, read-out: Plasma level, Individual animals): 1690 ng/mL
concentration at 0.5 h (male, beagle, dog, plasma, iv, 0.5 mg/kg, male beagle dog, iv 0.5 mg/kg, 0.5 hr, read-out: Plasma level, Mean): 1770 ng/mL
concentration at 1 h (male, beagle, dog, plasma, iv, 0.5 mg/kg, male beagle dog, iv 0.5 mg/kg, 1 hr, read-out: Plasma level, Individual animals): 1500 ng/mL
concentration at 1 h (male, beagle, dog, plasma, iv, 0.5 mg/kg, male beagle dog, iv 0.5 mg/kg, 1 hr, read-out: Plasma level, Mean): 1380 ng/mL
concentration at 2 h (male, beagle, dog, plasma, iv, 0.5 mg/kg, male beagle dog, iv 0.5 mg/kg, 2 hr, read-out: Plasma level, Individual animals): 1020 ng/mL
concentration at 2 h (male, beagle, dog, plasma, iv, 0.5 mg/kg, male beagle dog, iv 0.5 mg/kg, 2 hr, read-out: Plasma level, Mean): 1030 ng/mL
concentration at 4 h (male, beagle, dog, plasma, iv, 0.5 mg/kg, male beagle dog, iv 0.5 mg/kg, 4 hr, read-out: Plasma level, Individual animals): 442 ng/mL
concentration at 4 h (male, beagle, dog, plasma, iv, 0.5 mg/kg, male beagle dog, iv 0.5 mg/kg, 4 hr, read-out: Plasma level, Mean): 464 ng/mL
concentration at 6 h (male, beagle, dog, plasma, iv, 0.5 mg/kg, male beagle dog, iv 0.5 mg/kg, 6 hr, read-out: Plasma level, Individual animals): 308 ng/mL
concentration at 6 h (male, beagle, dog, plasma, iv, 0.5 mg/kg, male beagle dog, iv 0.5 mg/kg, 6 hr, read-out: Plasma level, Mean): 291 ng/mL
concentration at 8 h (male, beagle, dog, plasma, iv, 0.5 mg/kg, male beagle dog, iv 0.5 mg/kg, 8 hr, read-out: Plasma level, Individual animals): 217 ng/mL
